For one data set, the system named is Salmon testes DNA. In words: Binding affinity to salmon sperm DNA incubated for 20 mins by acridine orange displacement based fluorescence polarization assay. In kind it is nucleic-acid assay. As to conditions: Salmonidae.
Data set [1] addresses T1, DNA repair protein RAD52 homolog (Homo sapiens) (UniProt P43351).
T1 sequence (whole entry): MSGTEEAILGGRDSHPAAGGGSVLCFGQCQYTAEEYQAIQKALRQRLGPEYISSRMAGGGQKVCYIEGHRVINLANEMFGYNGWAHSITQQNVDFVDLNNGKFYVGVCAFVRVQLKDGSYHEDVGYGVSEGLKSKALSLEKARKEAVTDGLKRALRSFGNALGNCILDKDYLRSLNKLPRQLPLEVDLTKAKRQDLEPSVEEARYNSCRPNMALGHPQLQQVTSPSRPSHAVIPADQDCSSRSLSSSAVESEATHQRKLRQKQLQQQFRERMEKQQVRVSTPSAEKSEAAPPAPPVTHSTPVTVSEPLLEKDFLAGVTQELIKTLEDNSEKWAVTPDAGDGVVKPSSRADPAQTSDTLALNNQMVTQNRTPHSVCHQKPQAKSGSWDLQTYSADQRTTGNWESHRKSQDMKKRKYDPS
The experiment in a line: Inhibition of RAD52 in human U2OS cells co-expressing SA-GFP assessed as reduction in single strand DNA annealing at 30 uM incubated for 48 hrs by GFP+ positive cells detection based flow cytometry relative to control. The class given is cell-based.

Data set [2] deals with T2, DNA repair protein RAD51 homolog 1 (Homo sapiens) (UniProt Q06609).
T2 sequence (whole entry): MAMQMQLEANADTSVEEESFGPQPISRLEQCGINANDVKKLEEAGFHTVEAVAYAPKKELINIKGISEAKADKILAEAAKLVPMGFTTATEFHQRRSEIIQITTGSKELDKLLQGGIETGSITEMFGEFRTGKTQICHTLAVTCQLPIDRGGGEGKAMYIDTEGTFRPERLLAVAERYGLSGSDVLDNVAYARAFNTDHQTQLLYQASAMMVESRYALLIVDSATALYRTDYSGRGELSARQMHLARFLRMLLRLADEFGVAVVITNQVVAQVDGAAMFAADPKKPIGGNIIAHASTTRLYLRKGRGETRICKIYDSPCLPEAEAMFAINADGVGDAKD
In words: Inhibition of RAD51 (unknown origin) assessed as inhibition of DNA pairing by measuring D-loop formation between [32P]-ssDNA and homologous supercoiled pUC19 DNA at 30 uM incubated for 15 mins by gel electrophoresis method relative to control.

The test system of data set [3] is U2OS. The experiment in a line: Effect on homology dependent recombination in human U2OS cells co-expressing DR-GFP assessed as measuring green fluorescence at 10 uM flow cytometry (reference value: 7.13%). In kind it is functional. In general terms: A flow cytometer gives signals particle by particle.
The target of data set [4] is T3, DNA repair protein RAD51 homolog 1 (Mus musculus, UniProt Q08297).
T3 sequence (Q08297 whole entry): T2 sequence (whole entry) with N10S, F46Y, A76T, A194G
In words: Induction of RAD51 foci formation in BCR-ABL1-positive and BRCA1-proficient mouse 32Dcl3 cells by AlexaFluor-594 staining based inverted fluorescence microscopy.

In data set [5] the test system is U2OS. In words: Effect on homology dependent recombination in human U2OS cells co-expressing DR-GFP assessed as measuring green fluorescence at 20 uM flow cytometry (reference value: 7.13%). In kind it is functional.
In data set [6] the test system is U2OS. The experiment in a line: Effect on homology dependent recombination in human U2OS cells co-expressing DR-GFP assessed as measuring green fluorescence at 5 uM flow cytometry (reference value: 7.13%). The class given is functional.
A further data set concerns CAPAN-1. In words: Growth inhibition of BRCA2-deficient human Capan1 cells at 2.5 to 10 uM following media refreshment every 3 days and measured on day 10 by CellTiter-Glo assay. In kind it is functional, cell-based.
For data set [7], the target named is T1, DNA repair protein RAD52 homolog (Homo sapiens). The experiment in a line: Inhibition of RAD52 in human U2OS cells co-expressing SSA-GFP assessed as inhibition of repair of I-Scel-induced double stranded breaks by measuring green fluorescence at 10 uM by flow cytometry (reference value: 7.1%). The arrangement: scale not given: the % may be the effect or the level left. The class given is cell-based.

Data set [8] shares this target. The experiment in a line: Inhibition of RAD52 in human U2OS cells co-expressing SSA-GFP assessed as inhibition of repair of I-Scel-induced double stranded breaks by measuring green fluorescence at 15 uM by flow cytometry (reference value: 7.1%). In kind it is cell-based. The arrangement: scale not given: the % may be the effect or the level left.
The species entered for data set [9] is Homo sapiens. The experiment in a line: Growth inhibition of BRCA1-deficient human UWB1.289 cells at 2.5 to 10 uM following media refreshment every 3 days and measured on day 10 by CellTiter-Glo assay. In kind it is functional. On the technique in general: Cellular ATP, detected with luciferase, serves as a proxy for viable cell number.
Data set [10] has as its target T1, DNA repair protein RAD52 homolog (Homo sapiens). The experiment in a line: Inhibition of RAD52 in human U2OS cells co-expressing SSA-GFP assessed as inhibition of repair of I-Scel-induced double stranded breaks by measuring green fluorescence at 5 uM by flow cytometry (reference value: 7.1%). In kind it is cell-based. On the set-up: scale not given: the % may be the effect or the level left.

For data set [11] the target is unchanged. The experiment in a line: Inhibition of RAD52 (unknown origin) expressed in BCR-ABL1-positive and BRCA1-deficient mouse 32Dcl3 cells expressing GFP-RAD52 assessed as reduction in cisplatin-induced RAD52 foci formation at 2.5 uM by AlexaFluor-594 staining based inverted fluorescence microscopy relative to control. The class given is cell-based.
Data set [12] shares this target. In words: Inhibition of RAD52 in human U2OS cells co-expressing SSA-GFP assessed as inhibition of repair of I-Scel-induced double stranded breaks by measuring green fluorescence at 20 uM by flow cytometry (reference value: 7.1%). The class given is cell-based. On the set-up: scale not given: the % may be the effect or the level left.
For data set [13], the system named is U2OS. In words: Effect on homology dependent recombination in human U2OS cells co-expressing DR-GFP assessed as measuring green fluorescence at 30 uM flow cytometry (reference value: 7.13%). In kind it is functional.
For data set [14], the target named is T1, DNA repair protein RAD52 homolog (Homo sapiens). In words: Inhibition of RAD52 (unknown origin) assessed as inhibition of DNA pairing using [32P]-ssDNA by measuring D-loop formation incubated for 15 mins by gel electrophoresis method.
The species named for data set [15] is Homo sapiens. The experiment in a line: Growth inhibition of BRCA1-proficient human CML cells at 2.5 to 10 uM treated with compound on days 0 and 2 and measured on day 4 by trypan blue staining based assay. In kind it is functional.
Data set [16] concerns U2OS. In words: Effect on homology dependent recombination in human U2OS cells co-expressing pMX-GFP at 10 to 30 uM by flow cytometry. The class given is functional, cell-based.
The target of data set [17] is T1, DNA repair protein RAD52 homolog (Homo sapiens). The experiment in a line: Inhibition of RAD52 in human U2OS cells co-expressing SA-GFP assessed as reduction in single strand DNA annealing incubated for 48 hrs by GFP+ positive cells detection based flow cytometry. The class given is cell-based.
For data set [18], the target named is T4, DNA repair protein RAD52 homolog (Homo sapiens, UniProt P43351).
T4 sequence (P43351 whole entry): T1 sequence (whole entry)
In words: Effect on RAD52 (unknown origin) expressed in BCR-ABL1-positive and BRCA1-deficient mouse 32Dcl3 cells expressing GFP-RAD52 assessed as induction of RAD52 foci formation by AlexaFluor-594 staining based inverted fluorescence microscopy. In kind it is cell-based.

Substitutions are numbered along the chain they refer to. Active and inactive are the calls of the source. The rule behind the calls is not given here. Bounds are passed on as bounds.

A word on the inhibition: it is the share of the control response that was lost under treatment. As for `CCN(CC)CCN=C(S)Nc1ccc2nc(N3CCN(C)CC3)cc(C)c2c1`, the outcome in the data set with Salmon testes DNA and with U2OS [16] was inactive. Besides, the fold change (FC) is 3.4 in [1] and 2 to 2.5 in data set [11]. Further, the inhibition is greater than 90% in [2], “Dose-dependent effect” in [14] and “Dose-dependent effect” in [17]. For the same compound, the Activity with U2OS [3] was 6.68%; in data set [4], “Non-Toxic”; in the data set on U2OS [5], 6.2%; in the data set with U2OS [6], 6.98%; in data set [7], 6.28%; in data set [8], 4.08%. The Activity in [10] was 6.54%; in data set [12], 4.94%; in the data set with U2OS [13], 5.18%; in [18], “Non-Toxic”. The “growth inhibition (GI)” value in the data set on CAPAN-1 and in the data set filed under Homo sapiens [9] was “Active” in each case. Besides, the “growth inhibition (GI)” value in the data set listed under Homo sapiens [15] is “inactive”.
